Measured values published in patent US8048862B2, “Macrocyclic inhibitors of hepatitis C virus replication” (priority 2008, dated 2011).

Molecular target: NS3/NS4 complexes (Hepatitis C virus genotype 1a, UniProt P27958)
Assay: NS3/NS4 inhibition activity (IC50)
Assay type: biochemical
Settings: Table 2, read-out: IC50
From the text: NS3-NS4 inhibition activity can be determined using known assay methods. For example, NS3/NS4 complexes may be formed and inhibitory concentrations of test compounds determined as described in U.S. Patent Application Publication Number 2007/0054842 paragraph numbers 1497-1509, which is incorporated herein by reference in its entirety. Similarly, hepatitis C replicon EC50 may be determined using known assay methods such as described in U.S. Patent Application Publication Number 2007/0054842 paragraph numbers 1510-1515. Assays may be conducted at ambient temperature (23° C.) in assay buffer containing 50 mM Tris-HCl, pH 7.5, 15% glycerol, 0.6 mM Lauryldimethylamine Oxide (LDAO), 25 μM NS4A peptide, and 10 mM Dithiothreitol (DTT).

Sequence of NS3/NS4 complexes (P27958 1027-1657): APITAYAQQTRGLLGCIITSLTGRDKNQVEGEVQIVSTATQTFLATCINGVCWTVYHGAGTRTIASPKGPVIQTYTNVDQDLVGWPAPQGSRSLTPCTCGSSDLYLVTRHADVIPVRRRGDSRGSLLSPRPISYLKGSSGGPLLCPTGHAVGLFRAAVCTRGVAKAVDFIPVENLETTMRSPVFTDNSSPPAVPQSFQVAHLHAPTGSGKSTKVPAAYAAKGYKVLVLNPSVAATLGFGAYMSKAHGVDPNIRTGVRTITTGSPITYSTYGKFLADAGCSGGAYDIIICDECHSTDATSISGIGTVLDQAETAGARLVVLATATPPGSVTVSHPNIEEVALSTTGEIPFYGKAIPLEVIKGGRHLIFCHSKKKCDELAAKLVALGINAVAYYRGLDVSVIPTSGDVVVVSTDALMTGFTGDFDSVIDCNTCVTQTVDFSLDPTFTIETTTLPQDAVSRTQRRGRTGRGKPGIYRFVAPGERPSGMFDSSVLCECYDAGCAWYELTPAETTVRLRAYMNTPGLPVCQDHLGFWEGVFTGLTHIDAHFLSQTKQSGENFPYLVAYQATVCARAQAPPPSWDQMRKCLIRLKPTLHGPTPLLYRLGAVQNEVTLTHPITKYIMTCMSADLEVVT
Sequence of NS3/NS4 complexes (P27958 1658-1711): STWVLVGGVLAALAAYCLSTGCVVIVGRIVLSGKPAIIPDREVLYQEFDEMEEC

Compound	IC50 [nM]
CC1(S(=O)(=O)NC(=O)[C@@]23C[C@H]2/C=C\CCCCC[C@H](Nc2cccc(F)c2)C(=O)N2C[C@H](Oc4nccc5ccccc45)C[C@H]2C(=O)N3)CC1 [Compound 243]	< 10
COc1cccc(N[C@H]2CCCCC/C=C\[C@@H]3C[C@@]3(C(=O)NS(=O)(=O)C3(C)CC3)NC(=O)[C@@H]3C[C@@H](Oc4nc5ccccc5s4)CN3C2=O)c1 [Compound 244]	< 10
CC1(S(=O)(=O)NC(=O)[C@@]23C[C@H]2/C=C\CCCCC[C@H](NCc2ccccc2)C(=O)N2C[C@H](Oc4nc5ccccc5s4)C[C@H]2C(=O)N3)CC1 [Compound 253]	< 10
O=C1N[C@]2(C(=O)NOc3ccccc3)C[C@H]2/C=C\CCCCC[C@H](NCc2ccccc2)C(=O)N2C[C@H](Oc3nc4ccccc4s3)C[C@@H]12 [Compound 309]	75 to 500
CC(=O)N(Cc1ccccc1)[C@H]1CCCCC/C=C\[C@@H]2C[C@@]2(C(=O)NS(=O)(=O)C2(C)CC2)NC(=O)[C@@H]2C[C@@H](Oc3nc4ccccc4s3)CN2C1=O [Compound 315]	10 to 75
CC(=O)N(Cc1ccccc1)[C@H]1CCCCC/C=C\[C@@H]2C[C@@]2(C(=O)NS(=O)(=O)C2CC2)NC(=O)[C@@H]2C[C@@H](Oc3nc4ccccc4s3)CN2C1=O [Compound 316]	10 to 75
CS(=O)(=O)N(Cc1ccccc1)[C@H]1CCCCC/C=C\[C@@H]2C[C@@]2(C(=O)NS(=O)(=O)C2CC2)NC(=O)[C@@H]2C[C@@H](Oc3nc4ccccc4s3)CN2C1=O [Compound 317]	75 to 500
CCn1c(O[C@@H]2C[C@H]3C(=O)N[C@]4(C(=O)O)C[C@H]4/C=C\CCCCC[C@H](Nc4cc(F)cc(C(F)(F)F)c4)C(=O)N3C2)nc2ccccc21 [Compound 318]	< 10
CCn1c(O[C@@H]2C[C@H]3C(=O)N[C@]4(C(=O)NS(=O)(=O)C5(C)CC5)C[C@H]4/C=C\CCCCC[C@H](Nc4cc(F)cc(C(F)(F)F)c4)C(=O)N3C2)nc2ccccc21 [Compound 319]	< 10
CC(C)n1c(O[C@@H]2C[C@H]3C(=O)N[C@]4(C(=O)O)C[C@H]4/C=C\CCCCC[C@H](Nc4cc(F)cc(C(F)(F)F)c4)C(=O)N3C2)nc2ccccc21 [Compound 320]	< 10
O=C1N[C@]2(C(=O)O)C[C@H]2/C=C\CCCCC[C@H](Nc2ccc(-c3ccccc3)cc2)C(=O)N2C[C@H](Oc3nc4ccccc4s3)C[C@@H]12 [Compound 325]	75 to 500
CC1(S(=O)(=O)NC(=O)[C@@]23C[C@H]2/C=C\CCCCC[C@H](Nc2ccc(-c4ccccc4)cc2)C(=O)N2C[C@H](Oc4nc5ccccc5s4)C[C@H]2C(=O)N3)CC1 [Compound 326]	< 10
CC1(S(=O)(=O)NC(=O)[C@@]23C[C@H]2/C=C\CCCCC[C@H](Nc2cc(F)cc(F)c2)C(=O)N2C[C@H](Oc4nc5ccccc5s4)C[C@H]2C(=O)N3)CC1 [Compound 328]	< 10
CC1(S(=O)(=O)NC(=O)[C@@]23C[C@H]2/C=C\CCCCC[C@H](Nc2ccc(C(F)(F)F)cc2)C(=O)N2C[C@H](Oc4nc5ccccc5s4)C[C@H]2C(=O)N3)CC1 [Compound 330]	< 10
O=C1N[C@]2(C(=O)O)C[C@H]2/C=C\CCCCC[C@H](Nc2ccc(Cl)cc2)C(=O)N2C[C@H](Oc3nc4ccccc4s3)C[C@@H]12 [Compound 331]	75 to 500
CC1(S(=O)(=O)NC(=O)[C@@]23C[C@H]2/C=C\CCCCC[C@H](Nc2ccc(Cl)cc2)C(=O)N2C[C@H](Oc4nc5ccccc5s4)C[C@H]2C(=O)N3)CC1 [Compound 332]	< 10
O=C1N[C@]2(C(=O)O)C[C@H]2/C=C\CCCCC[C@H](Nc2ccc(Cl)c(Cl)c2)C(=O)N2C[C@H](Oc3nc4ccccc4s3)C[C@@H]12 [Compound 333]	75 to 500
CC1(S(=O)(=O)NC(=O)[C@@]23C[C@H]2/C=C\CCCCC[C@H](Nc2ccc(Cl)c(Cl)c2)C(=O)N2C[C@H](Oc4nc5ccccc5s4)C[C@H]2C(=O)N3)CC1 [Compound 334]	< 10
O=C1N[C@]2(C(=O)O)C[C@H]2/C=C\CCCCC[C@H](Nc2cccc(Cl)c2)C(=O)N2C[C@H](Oc3nc4ccccc4s3)C[C@@H]12 [Compound 335]	10 to 75
CC1(S(=O)(=O)NC(=O)[C@@]23C[C@H]2/C=C\CCCCC[C@H](Nc2cc(C(F)(F)F)cc(C(F)(F)F)c2)C(=O)N2C[C@H](Oc4nc5ccccc5s4)C[C@H]2C(=O)N3)CC1 [Compound 336]	< 10

System: hepatitis C replicon
Assay: hepatitis C replicon EC50
Assay type: cell-based
Settings: Hepatitis C virus, read-out: EC50 nM
From the text: NS3-NS4 inhibition activity can be determined using known assay methods.

Compound	EC50 [nM]
CC(=O)N(Cc1ccccc1)[C@H]1CCCCC/C=C\[C@@H]2C[C@@]2(C(=O)NS(=O)(=O)C2CC2)NC(=O)[C@@H]2C[C@@H](Oc3nc4ccccc4s3)CN2C1=O [Compound 316]	> 500

Same assay, conditions: Hepatitis C virus; Table 2; hepatitis C replicon; read-out: EC50

Compound	EC50 [nM]
CC1(S(=O)(=O)NC(=O)[C@@]23C[C@H]2/C=C\CCCCC[C@H](Nc2cccc(F)c2)C(=O)N2C[C@H](Oc4nccc5ccccc45)C[C@H]2C(=O)N3)CC1 [Compound 243]	10 to 75
COc1cccc(N[C@H]2CCCCC/C=C\[C@@H]3C[C@@]3(C(=O)NS(=O)(=O)C3(C)CC3)NC(=O)[C@@H]3C[C@@H](Oc4nc5ccccc5s4)CN3C2=O)c1 [Compound 244]	10 to 75
CC1(S(=O)(=O)NC(=O)[C@@]23C[C@H]2/C=C\CCCCC[C@H](NCc2ccccc2)C(=O)N2C[C@H](Oc4nc5ccccc5s4)C[C@H]2C(=O)N3)CC1 [Compound 253]	10 to 75
O=C1N[C@]2(C(=O)NOc3ccccc3)C[C@H]2/C=C\CCCCC[C@H](NCc2ccccc2)C(=O)N2C[C@H](Oc3nc4ccccc4s3)C[C@@H]12 [Compound 309]	> 500
CC(=O)N(Cc1ccccc1)[C@H]1CCCCC/C=C\[C@@H]2C[C@@]2(C(=O)NS(=O)(=O)C2(C)CC2)NC(=O)[C@@H]2C[C@@H](Oc3nc4ccccc4s3)CN2C1=O [Compound 315]	> 500
CS(=O)(=O)N(Cc1ccccc1)[C@H]1CCCCC/C=C\[C@@H]2C[C@@]2(C(=O)NS(=O)(=O)C2CC2)NC(=O)[C@@H]2C[C@@H](Oc3nc4ccccc4s3)CN2C1=O [Compound 317]	> 500
CCn1c(O[C@@H]2C[C@H]3C(=O)N[C@]4(C(=O)O)C[C@H]4/C=C\CCCCC[C@H](Nc4cc(F)cc(C(F)(F)F)c4)C(=O)N3C2)nc2ccccc21 [Compound 318]	> 500
CCn1c(O[C@@H]2C[C@H]3C(=O)N[C@]4(C(=O)NS(=O)(=O)C5(C)CC5)C[C@H]4/C=C\CCCCC[C@H](Nc4cc(F)cc(C(F)(F)F)c4)C(=O)N3C2)nc2ccccc21 [Compound 319]	< 10
CC(C)n1c(O[C@@H]2C[C@H]3C(=O)N[C@]4(C(=O)O)C[C@H]4/C=C\CCCCC[C@H](Nc4cc(F)cc(C(F)(F)F)c4)C(=O)N3C2)nc2ccccc21 [Compound 320]	< 10
O=C1N[C@]2(C(=O)O)C[C@H]2/C=C\CCCCC[C@H](Nc2ccc(-c3ccccc3)cc2)C(=O)N2C[C@H](Oc3nc4ccccc4s3)C[C@@H]12 [Compound 325]	> 500
CC1(S(=O)(=O)NC(=O)[C@@]23C[C@H]2/C=C\CCCCC[C@H](Nc2ccc(-c4ccccc4)cc2)C(=O)N2C[C@H](Oc4nc5ccccc5s4)C[C@H]2C(=O)N3)CC1 [Compound 326]	> 500
CC1(S(=O)(=O)NC(=O)[C@@]23C[C@H]2/C=C\CCCCC[C@H](Nc2cc(F)cc(F)c2)C(=O)N2C[C@H](Oc4nc5ccccc5s4)C[C@H]2C(=O)N3)CC1 [Compound 328]	10 to 75
CC1(S(=O)(=O)NC(=O)[C@@]23C[C@H]2/C=C\CCCCC[C@H](Nc2ccc(C(F)(F)F)cc2)C(=O)N2C[C@H](Oc4nc5ccccc5s4)C[C@H]2C(=O)N3)CC1 [Compound 330]	75 to 500
O=C1N[C@]2(C(=O)O)C[C@H]2/C=C\CCCCC[C@H](Nc2ccc(Cl)cc2)C(=O)N2C[C@H](Oc3nc4ccccc4s3)C[C@@H]12 [Compound 331]	> 500
CC1(S(=O)(=O)NC(=O)[C@@]23C[C@H]2/C=C\CCCCC[C@H](Nc2ccc(Cl)cc2)C(=O)N2C[C@H](Oc4nc5ccccc5s4)C[C@H]2C(=O)N3)CC1 [Compound 332]	75 to 500
O=C1N[C@]2(C(=O)O)C[C@H]2/C=C\CCCCC[C@H](Nc2ccc(Cl)c(Cl)c2)C(=O)N2C[C@H](Oc3nc4ccccc4s3)C[C@@H]12 [Compound 333]	> 500
CC1(S(=O)(=O)NC(=O)[C@@]23C[C@H]2/C=C\CCCCC[C@H](Nc2ccc(Cl)c(Cl)c2)C(=O)N2C[C@H](Oc4nc5ccccc5s4)C[C@H]2C(=O)N3)CC1 [Compound 334]	75 to 500
O=C1N[C@]2(C(=O)O)C[C@H]2/C=C\CCCCC[C@H](Nc2cccc(Cl)c2)C(=O)N2C[C@H](Oc3nc4ccccc4s3)C[C@@H]12 [Compound 335]	> 500
CC1(S(=O)(=O)NC(=O)[C@@]23C[C@H]2/C=C\CCCCC[C@H](Nc2cc(C(F)(F)F)cc(C(F)(F)F)c2)C(=O)N2C[C@H](Oc4nc5ccccc5s4)C[C@H]2C(=O)N3)CC1 [Compound 336]	75 to 500
